Experimental data from the NIST ThermoML archive (doi:10.1021/acs.jced.8b01128).
± gives the expanded uncertainty stated by the source.

How the values were obtained:
[1] = 298.15 K; 101.33 kPa; Liquid; Pycnometric method
[2] = refractive index (Na D-line) (dimensionless); settings: 298.15 K; 101.33 kPa; Liquid; Standard Abbe refractometry

Row | SMILES | mass density [1] [kg/m3] | refractive index [2]
1 | CC(O)CO (centres undefined) [1,2-propanediol] | 1032.7 ± 0.4 | 1.43262 ± 0.012
2 | O [water] | – | 1.33299 ± 0.012
3 | OCCO [1,2-ethanediol] | – | 1.43159 ± 0.012
